# How the values were obtained:
# HepG2 cells = test: Nexin assay for apoptosis, 24 h Q10; type: cell-based; conditions: 50 μM Q10, 24 hours
# Text: (§1) The 7AAD dye will enter into cells with permeabilized cell membranes; primarily those cells that are in late apoptosis. Annexin-V-PE is a dye that binds to Phosphotidyl serine, which is exposed on the outer surface of the plasma membrane in early apoptotic cells. The Nexin reagent thus can be used to differentiate between different populations of apoptotic cells in a flow cytometer.
# MCF-7 cells = test: Nexin assay for apoptosis, 24 h Q10; type: cell-based; conditions: 50 μM and 100 μM Q10, 24 hours
# Text: as §1
# PC-3 cells = test: Nexin assay for apoptosis, 24 h Q10; type: cell-based; conditions: 50 μM and 100 μM Q10, 24 hours; increase less than in PaCa2
# Text: as §1
# SCC cells = test: Real-time PCR Heat Shock Protein Array; type: cell-based; conditions: 100 μM
# Text: The control cells were untreated cells.
# Heat Shock Arrays were run for SCC cells and the data of regulated genes is summarized below in Table 13.
# [1] = system: Pancreatic Cancer Cells (PaCa2); test: Real-time PCR Angiogenesis Array; type: cell-based; conditions: 100 uM Q10, various times
# Experimental: Experiments were carried out essentially as described above.
# [2] = system: HepG2 (liver cancer) cells; test: PCR Apoptosis Array; type: cell-based
# [3] = system: Pyruvate Kinase M2 (PKM2); test: Western blot, Pyruvate Kinase M2 levels; type: cell-based, human
# Experimental: The samples were processed and run on a 4-12% Bis-Tris Novex NuPAGE gel as described above. The gels were run, transferred and stained essentially as described above.
# The lactate dehydrogenase blots were stripped by incubating for 30 minutes with methanol, followed by two 10 minute washes with TBS-T, then 30 minutes of incubation with Stripping buffer at 50 deg C., and followed by two washes with 100 ml or more of TBS-T for 30′ each. The 2 blots were scanned in laser scanner to check for complete stripping. The blots were activated with methanol for 5 seconds, washed with water for 5 minutes, and TBST for 15 minutes. The blots were blocked for 1 hour with 5% blocking reagent in TBS-T at room temperature and then washed 3 times with TBS-T (1×-15′; 2×5′ each) and probed with the rabbit polyclonal antibody for Pyruvate Kinase M2 in 5% BSA (NOVUS BIOLOGICALS catalog #H00005315-DO1P) at 1:500 dilution overnight at 4 deg C. with shaking. After the overnight incubation with primary antibody for Pyruvate Kinase M2, the membranes were washed 3 times with TBS-T (1×-15′; 2×5′ each) and probed with the secondary antibody (antirabbit; 1:10,000 dilution) for 1 h on the orbital tilting shaker at room temperature. After 1 h of incubation with secondary antibodies, the blots were washed 3 times with TBS-T (1×-15′; 2×5′ each) and then incubated with ECF reagent for 5 minutes and then each blot scanned with 5100 Fuji Laser scanner at 25 uM resolution, 16 bit, green laser, at 400V and at 500 V.
# The HASMC samples were processed and the gels were run, transferred, stained and scanned essentially as described above.
# The above blots were stripped by incubating for 30 minutes with methanol, followed by two 10 minute washes with TBS-T, then 30 minutes of incubation with Stripping buffer at 50 deg C., and followed by two washes with 100 ml or more of TBS-T for 30′ each. The blots were scanned in laser scanner to check for complete stripping. The blots were activated with methanol for 5 seconds, washed with water for 5 minutes, and TBST for 15 minutes. The blots were blocked for 1 hour with 5% blocking reagent in TBS-T at room temperature and then washed 3 times with TBS-T (1×-15′; 2×5′ each) and probed with the primary antibody for PKM2, SDHB or SDHC in 5% BSA in TBS-T by incubation overnight at 4 deg C. with gentle shaking. The primary antibody for SDHC (ABNOVA H00006391-MO2; antimouse) was at 1:500 dilution. The primary antibody for SDHB was from Abcam ab4714-200; antimouse; at 1:1000 dilution. The primary antibody for Pyruvate Kinase M2 (PKM2) was from Novus Biologicals H00005315-D0IP; antirabbit; at 1:500 dilution. After incubation with primary antibodies, the membranes were washed 3 times with TBS-T (1×-15′; 2×5′ each) and probed with the secondary antibody (SDHB & C antimouse; and PKM2 antirabbit; 1:10,000 dilution) for 1 h on the orbital tilting shaker at room temperature. After 1 h of incubation, the blots were washed 3 times with TBS-T (1×-15′; 2×5′ each) and incubated with ECF reagent for 5 minutes and then each blot scanned with 5100 Fuji Laser scanner at 25 uM resolution, 16 bit, green laser, at 400V and at 500 V.
structure (smiles),measurement,setting,value
"COC1=C(OC)C(=O)C(C/C=C(\C)CC/C=C(\C)CC/C=C(\C)CC/C=C(\C)CC/C=C(\C)CC/C=C(\C)CC/C=C(\C)CC/C=C(\C)CC/C=C(\C)CCC=C(C)C)=C(C)C1=O [Q10, Coenzyme Q10]",increase of gated population in late and early apoptotic stages,HepG2 cells,about 20%
same,early/late apoptotic population,MCF-7 cells,increase only in early apoptotic population
same,early and late apoptotic population,PC-3 cells,increase in both early and late apoptotic population
same,DNAJA1 gene Regulation,SCC cells; at 6 hours,Up regulated at 6
same,DNAJB5 gene Regulation,SCC cells; at 6 hours,Down regulated
same,DNAJB13 gene Regulation,SCC cells; at 6 hours,Down regulated
same,DNAJC4 gene Regulation,SCC cells; at 6 hours,Down regulated
same,DNAJC5B gene Regulation,SCC cells; at 6 hours,Down regulated
same,DNAJC12 gene Regulation,SCC cells; at 6 hours,Down regulated
same,HSPA8 gene Regulation,SCC cells; at 6 hours,Up regulated at 6
same,HSPH1 gene Regulation,SCC cells; at 6 hours,Up regulated at 6
same,CCT6B gene Regulation,SCC cells; at 24 hours,Down regulated
same,genes modulated by Q10 treatment (Angiogenesis arrays),[1],"AKT1, ANGPTL4, ANGPEP, CCL2, CDH4, CXCL1, EDG1, EFNA3, EFNB2, EGF, FGF1, ID3, IL1B, 1L8, KDR, NRP1, PECAM1, PROK2, SERPINF1, SPHK1, STAB1, TGFB1, VEGFA and VEGFB"
same,BAG1 mRNA downregulated over control,"[2]; 100 uM Q10, 16 hours",approximately 6 fold
same,CASP9 mRNA upregulated over control,"[2]; 100 uM Q10, 16 hours",approximately 61 fold
same,TNFRSF1A mRNA downregulated over control,"[2]; 100 uM Q10, 16 hours",~4 fold
same,BAG1 mRNA upregulated over control,"[2]; 100 uM Q10, 48 hours",~1 fold
same,CASP9 mRNA upregulated over control,"[2]; 100 uM Q10, 48 hours",approximately 55 fold
same,TNFRSF1A mRNA upregulated over control,"[2]; 100 uM Q10, 48 hours",~1 fold
same,Pyruvate Kinase Muscle form 2 Upper Band Normalized Intensity,"[3]; HASMC, 5g48-50",811
same,Pyruvate Kinase Muscle form 2 Upper Band Normalized Intensity,"[3]; HASMC, 5g48-100",611
same,Pyruvate Kinase Muscle form 2 Upper Band Normalized Intensity,"[3]; HASMC, 22G24-50",477
same,Pyruvate Kinase Muscle form 2 Upper Band Normalized Intensity,"[3]; HASMC, 22G24-100",701
same,Pyruvate Kinase Muscle form 2 Upper Band Normalized Intensity,"[3]; HASMC, 22G48-50",595
same,Pyruvate Kinase Muscle form 2 Upper Band Normalized Intensity,"[3]; HASMC, 22G48-100",496
same,Pyruvate Kinase Muscle form 2 Upper Band Normalized Volume,"[3]; HepG2, 5g-50, 24 h",29269
same,Pyruvate Kinase Muscle form 2 Upper Band Normalized Intensity,"[3]; HepG2, 5g-50, 48 h",303
same,Pyruvate Kinase Muscle form 2 Upper Band Normalized Volume,"[3]; HepG2, 5g-100, 24 h",18307
same,Pyruvate Kinase Muscle form 2 Upper Band Normalized Intensity,"[3]; HepG2, 5g-100, 48 h",354
same,Pyruvate Kinase Muscle form 2 Upper Band Normalized Volume,"[3]; HepG2, 22G-50, 24 h",22294
same,Pyruvate Kinase Muscle form 2 Upper Band Normalized Intensity,"[3]; HepG2, 22G-50, 48 h",562
same,Pyruvate Kinase Muscle form 2 Upper Band Normalized Volume,"[3]; HepG2, 22G-100, 24 h",19560
same,Pyruvate Kinase Muscle form 2 Upper Band Normalized Intensity,"[3]; HepG2, 22G-100, 48 h",601
same,PKM2 expression,[3]; cancer cells tested,dose-dependent decrease
same,PKM2 expression,[3]; normal cells,no major changes
